From US20110086759A1, “CHEMICAL COMPOUNDS” (SYNGENTA CROP PROTECTION, INC., priority 2007, published 2011)

Legend:
[1] = system: Alopecurus myosuroides (ALOMY); assay: Pre-emergence biological efficacy, glasshouse pot test; assay type: in vivo; conditions: 312 h
Method in brief: (§1)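 Glasshouse pot test: spray on soil one day after sowing, 1000 or 250 g/ha. Conditions 24/16 °C day/night, 14 h light, 65% humidity. Plant damage scored 0–100 at 13 days.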

[2] = system: Amaranthus retoflexus (AMARE); assay: as above; assay type: in vivo; conditions: Amaranthus retroflexus, 312 h
Method in brief: as §1

[3] = system: Echinochloa crus-galli (ECHCG); assay: as above; assay type: in vivo; conditions: 312 h
Method in brief: as §1

[4] = system: Ipomea hederaceae (IPOHE); assay: as above; assay type: in vivo; conditions: Ipomoea hederacea, 312 h
Method in brief: as §1

[5] = system: Setaria faberi (SETFA); assay: as above; assay type: in vivo; conditions: 312 h
Method in brief: as §1

[6] = system: Solanum nigrum (SOLNI); assay: as above; assay type: in vivo; conditions: 312 h
Method in brief: as §1

[7] = system: Alopecurus myosuroides (ALOMY); assay: Post-emergence biological efficacy, glasshouse pot test; assay type: in vivo; conditions: 312 h
Method in brief: (§2)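 Pot-grown weeds were sprayed 8 days after sowing with test compound in acetone/water (50:50) with 0.5% Tween 20 at 1000 or 250 g/ha. Glasshouse at 24/16° C day/night, 14 h light, 65% humidity. Damage scored 0-100 (100 = total damage) after 13 days.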

[8] = system: Amaranthus retoflexus (AMARE); assay: as above; assay type: in vivo; conditions: Amaranthus retroflexus, 312 h
Method in brief: as §2

[9] = system: Echinochloa crus-galli (ECHCG); assay: as above; assay type: in vivo; conditions: 312 h
Method in brief: as §2

[10] = system: Ipomea hederaceae (IPOHE); assay: as above; assay type: in vivo; conditions: Ipomoea hederacea, 312 h
Method in brief: as §2

[11] = system: Setaria faberi (SETFA); assay: as above; assay type: in vivo; conditions: 312 h
Method in brief: as §2

[12] = system: Solanum nigrum (SOLNI); assay: as above; assay type: in vivo; conditions: 312 h
Method in brief: as §2

[13] = pre-emergence, 1,000 g/ha, evaluated after 13 days (100=total damage; 0=no damage), read-out: Percentage damage ALOMY
[14] = pre-emergence, 1,000 g/ha, evaluated after 13 days (100=total damage; 0=no damage), read-out: Percentage damage AMARE
[15] = pre-emergence, 1,000 g/ha, evaluated after 13 days (100=total damage; 0=no damage), read-out: Percentage damage ECHCG
[16] = pre-emergence, 1,000 g/ha, evaluated after 13 days (100=total damage; 0=no damage), read-out: Percentage damage IPOHE
[17] = pre-emergence, 1,000 g/ha, evaluated after 13 days (100=total damage; 0=no damage), read-out: Percentage damage SETFA
[18] = pre-emergence, 1,000 g/ha, evaluated after 13 days (100=total damage; 0=no damage), read-out: Percentage damage SOLNI
[19] = post-emergence, 1,000 g/ha, evaluated after 13 days (100=total damage; 0=no damage), read-out: Percentage damage caused to weed species, ALOMY
[20] = post-emergence, 1,000 g/ha, evaluated after 13 days (100=total damage; 0=no damage), read-out: Percentage damage caused to weed species, AMARE
[21] = post-emergence, 1,000 g/ha, evaluated after 13 days (100=total damage; 0=no damage), read-out: Percentage damage caused to weed species, ECHCG
[22] = post-emergence, 1,000 g/ha, evaluated after 13 days (100=total damage; 0=no damage), read-out: Percentage damage caused to weed species, IPOHE
[23] = post-emergence, 1,000 g/ha, evaluated after 13 days (100=total damage; 0=no damage), read-out: Percentage damage caused to weed species, SETFA
[24] = post-emergence, 1,000 g/ha, evaluated after 13 days (100=total damage; 0=no damage), read-out: Percentage damage caused to weed species, SOLNI
[25] = pre-emergence, rate 1,000 g/ha, evaluated after 13 days (100=total damage to plant; 0=no damage), read-out: Percentage damage caused to weed species, ALOMY
[26] = pre-emergence, rate 1,000 g/ha, evaluated after 13 days (100=total damage to plant; 0=no damage), read-out: Percentage damage caused to weed species, AMARE
[27] = pre-emergence, rate 1,000 g/ha, evaluated after 13 days (100=total damage to plant; 0=no damage), read-out: Percentage damage caused to weed species, ECHCG
[28] = pre-emergence, rate 1,000 g/ha, evaluated after 13 days (100=total damage to plant; 0=no damage), read-out: Percentage damage caused to weed species, IPOHE
[29] = pre-emergence, rate 1,000 g/ha, evaluated after 13 days (100=total damage to plant; 0=no damage), read-out: Percentage damage caused to weed species, SETFA
[30] = pre-emergence, rate 1,000 g/ha, evaluated after 13 days (100=total damage to plant; 0=no damage), read-out: Percentage damage caused to weed species, SOLNI
[31] = Rate 1,000 g/ha, post-emergence spray, evaluated after 13 days (100=total damage to plant; 0=no damage to plant), read-out: Percentage damage caused to weed species, post-emergence, ALOMY
[32] = Rate 1,000 g/ha, post-emergence spray, evaluated after 13 days (100=total damage to plant; 0=no damage to plant), read-out: Percentage damage caused to weed species, post-emergence, AMARE
[33] = Rate 1,000 g/ha, post-emergence spray, evaluated after 13 days (100=total damage to plant; 0=no damage to plant), read-out: Percentage damage caused to weed species, post-emergence, ECHCG
[34] = Rate 1,000 g/ha, post-emergence spray, evaluated after 13 days (100=total damage to plant; 0=no damage to plant), read-out: Percentage damage caused to weed species, post-emergence, IPOHE
[35] = Rate 1,000 g/ha, post-emergence spray, evaluated after 13 days (100=total damage to plant; 0=no damage to plant), read-out: Percentage damage caused to weed species, post-emergence, SETFA
[36] = Rate 1,000 g/ha, post-emergence spray, evaluated after 13 days (100=total damage to plant; 0=no damage to plant), read-out: Percentage damage caused to weed species, post-emergence, SOLNI

melting point	Structure (SMILES)	pest or weed control at 1000 g/ha [1, 13]	pest or weed control at 1000 g/ha [2, 14]	pest or weed control at 1000 g/ha [3, 15]	pest or weed control at 1000 g/ha [4, 16]	pest or weed control at 1000 g/ha [5, 17]	pest or weed control at 1000 g/ha [6, 18]	pest or weed control at 1000 g/ha [7, 19]	pest or weed control at 1000 g/ha [8, 20]	pest or weed control at 1000 g/ha [9, 21]	pest or weed control at 1000 g/ha [10, 22]	pest or weed control at 1000 g/ha [11, 23]	pest or weed control at 1000 g/ha [12, 24]	pest or weed control at 1000 g/ha [1, 25]	pest or weed control at 1000 g/ha [2, 26]	pest or weed control at 1000 g/ha [3, 27]	pest or weed control at 1000 g/ha [4, 28]	pest or weed control at 1000 g/ha [5, 29]	pest or weed control at 1000 g/ha [6, 30]	pest or weed control at 1000 g/ha [7, 31]	other results
150 to 152 °C	O=C(O)c1nc(C2CC2)nc(NCc2ccco2)c1Cl [Compound 1-125, 5-chloro-2-cyclopropyl-4-(furan-2-ylmethylamino)-pyrimidine-6-carboxylic acid]	60%	100%	80%	100%	70%	100%	60%	100%	70%	100%	90%	100%								
126 to 128 °C	NC(=O)c1nc(C2CC2)nc(NCc2ccco2)c1Cl [Compound 201-125, 6-aminocarbonyl-5-chloro-2-cyclopropyl-4-(furan-2-ylmethylamino)-pyrimidine]													20%	70%	0%	40%	0%	70%	20%	pest or weed control at 1000 g/ha [8, 32]: 90%; pest or weed control at 1000 g/ha [9, 33]: 20%; pest or weed control at 1000 g/ha [10, 34]: 70%; pest or weed control at 1000 g/ha [11, 35]: 50%; pest or weed control at 1000 g/ha [12, 36]: 90%
110 to 112 °C	COC(=O)c1nc(Cl)nc(NCc2ccco2)c1Cl [Compound 207-48, 2,5-dichloro-4-(furan-2-ylmethylamino)-6-methoxy carbonylpyrimidine]													20%	30%	10%	40%	20%	40%	10%	pest or weed control at 1000 g/ha [8, 32]: 30%; pest or weed control at 1000 g/ha [9, 33]: 10%; pest or weed control at 1000 g/ha [10, 34]: 30%; pest or weed control at 1000 g/ha [11, 35]: 10%; pest or weed control at 1000 g/ha [12, 36]: 60%
85 to 86 °C	C=Cc1c(NCc2ccco2)nc(C2CC2)nc1C(=O)OC [Compound 31-125, 2-cyclopropyl-5-ethenyl-4-(furan-2-ylmethylamino)-6-methoxycarbonylpyrimidine]													20%	90%	20%	100%	20%	80%	10%	pest or weed control at 1000 g/ha [8, 32]: 90%; pest or weed control at 1000 g/ha [9, 33]: 0%; pest or weed control at 1000 g/ha [10, 34]: 50%; pest or weed control at 1000 g/ha [11, 35]: 10%; pest or weed control at 1000 g/ha [12, 36]: 80%
	COC(=O)c1nc(C2CC2)nc(N[C@@H](Cc2ccc(OC(C)(C)C)cc2)C(=O)OC)c1Cl [4-288 (S), 4-[(1S)-2-(4-^tButoxyphenyl)-1-methoxycarbonyl-ethylamino]-5-chloro-2-cyclopropyl-6-methoxycarbonyl-pyrimidine]	0%	80%	0%	60%	0%	40%	10%	80%	0%	50%	10%	80%								
	C=CCC(Nc1nc(C2CC2)nc(C(=O)OC)c1Cl)c1ccccn1 (stereo not shown) [Compound 4-199, 5-Chloro-2-cyclopropyl-6-methoxycarbonyl-4-[1-(pyrid-2-yl)-but-3-enylamino]-pyrimidine]	0%	0%	0%	40%	0%	0%	0%	50%	0%	80%	0%	60%								
	COC(=O)c1nc(C2CC2)nc(N[C@@H](c2ccccc2)[C@H](O)c2ccccc2)c1Cl [4-280 (1S,2R), 5-Chloro-2-cyclopropyl-4-[(1S, 2R)-1,2-diphenyl-2-hydroxy-ethylamino]-6-methoxycarbonyl-pyrimidine]	20%	100%	40%	80%	30%	90%	40%	100%	60%	100%	80%	100%								
	COC(=O)c1nc(-c2ccc(Cl)c(OC)c2)nc(NCc2ccco2)c1Cl [Compound 229-48, 5-Chloro-2-(4-chloro-3-methoxyphenyl)-4-(furan-2-ylmethyl-amino)-6-methoxy-carbonylpyrimidine]													10%	100%	0%	0%	30%	90%	10%	pest or weed control at 1000 g/ha [8, 32]: 100%; pest or weed control at 1000 g/ha [9, 33]: 30%; pest or weed control at 1000 g/ha [10, 34]: 30%; pest or weed control at 1000 g/ha [11, 35]: 60%; pest or weed control at 1000 g/ha [12, 36]: 80%
